Assay results as given in ChEMBL document CHEMBL3785000, “Antitubercular Lanostane Triterpenes from Cultures of the Basidiomycete Ganoderma sp. BCC 16642” (J Nat Prod, 2016).
Values after ≈ are worked out from the molar mass of the structure shown.

Tests used:
[1] = test system: Mycobacterium tuberculosis; experiment: Antitubercular activity against Mycobacterium tuberculosis H37Ra infected in African green monkey Vero cells measured daily for 8 days by green fluorescent protein microplate assay; type: functional; conditions: 192 h
Vero = experiment: Cytotoxicity against African green monkey Vero cells by green fluorescent protein microplate assay; type: cell-based; conditions: Chlorocebus sabaeus

Compound: CC(=O)O[C@@H](C/C=C(\C)C(=O)O)[C@@H](C)[C@H]1CC[C@@]2(C)C3=C(CC[C@]12C)[C@@]1(C)CCC(=O)C(C)(C)[C@@H]1C[C@H]3O
- MIC [1]: > 50 µg/mL
- IC50 (Vero): > 95 µM

Compound: Cc1c2ccncc2c(C)c2c1[nH]c1ccccc12 [ELLIPTECINE]
- IC50 (Vero): 3.3 µM

Compound: CC(=O)O[C@@H](C/C=C(\C)C(=O)O)[C@@H](C)[C@H]1C[C@H](OC(C)=O)[C@@]2(C)C3=C(CC[C@]12C)[C@@]1(C)CC[C@H](OC(C)=O)C(C)(C)[C@@H]1CC3
- MIC [1]: 3.13 µg/mL (≈ 5.09 µM)
- IC50 (Vero): 15 µM

Compound: CC(=O)O[C@@H](C/C=C(\C)C(=O)O)[C@@H](C)[C@H]1C[C@H](OC(C)=O)[C@@]2(C)C3=C(CC[C@]12C)[C@@]1(C)CC[C@H](OC(C)=O)C(C)(C)[C@@H]1C[C@H]3O
- MIC [1]: 3.13 µg/mL (≈ 4.96 µM)
- IC50 (Vero): 28 µM

Compound: CO[C@@H]1C[C@H]2C(C)(C)C(=O)CC[C@]2(C)C2=C1[C@]1(C)CC[C@H]([C@H](C)[C@H](C/C=C(\C)C(=O)O)OC(C)=O)[C@@]1(C)CC2
- MIC [1]: 50 µg/mL (≈ 92.1 µM)
- IC50 (Vero): 36 µM

Compound: CC(=O)O[C@@H](C/C=C(\C)C(=O)O)[C@@H](C)[C@H]1CC[C@@]2(C)C3=CC[C@H]4C(C)(C)[C@@H](OC(C)=O)CC[C@]4(C)C3=CC[C@]12C
- MIC [1]: 12.5 µg/mL (≈ 22.5 µM)
- IC50 (Vero): 32 µM

Compound: CC(=O)O[C@@H](C/C=C(\C)C(=O)O)[C@@H](C)[C@H]1CC[C@@]2(C)C3=CC[C@H]4C(C)(C)C(=O)CC[C@]4(C)C3=CC[C@]12C
- MIC [1]: > 50 µg/mL
- IC50 (Vero): 35 µM

Compound: CC(=O)O[C@@H](C/C=C(\C)C(=O)O)[C@@H](C)[C@H]1CC[C@@]2(C)C3=C(CC[C@]12C)[C@@]1(C)CCC(=O)C(C)(C)[C@@H]1CC3=O
- MIC [1]: 50 µg/mL (≈ 94.9 µM)
- IC50 (Vero): 91 µM

Compound: CC(=O)O[C@@H](C/C=C(\C)C(=O)O)[C@@H](C)[C@H]1C[C@H](OC(C)=O)[C@@]2(C)C3=C(CC[C@]12C)[C@@]1(C)CCC(=O)C(C)(C)[C@@H]1C[C@H]3O
- MIC [1]: > 50 µg/mL
- IC50 (Vero): > 85 µM

Compound: CC(=O)O[C@@H](C/C=C(\C)C(=O)O)[C@@H](C)[C@H]1C[C@H](OC(C)=O)[C@@]2(C)C3=C(CC[C@]12C)[C@@]1(C)CCC(=O)C(C)(C)[C@@H]1CC3
- MIC [1]: > 50 µg/mL
- IC50 (Vero): 86 µM

Compound: CC(=O)O[C@H]1CC[C@]2(C)C3=C(CC[C@H]2C1(C)C)[C@]1(C)[C@@H](OC(C)=O)C[C@H]([C@H](C)CC/C=C(\C)C(=O)O)[C@@]1(C)CC3
- MIC [1]: 0.781 µg/mL (≈ 1.4 µM)
- IC50 (Vero): 22 µM

Compound: CC(=O)O[C@@H](C/C=C(\C)C(=O)O)[C@@H](C)[C@H]1C[C@H](OC(C)=O)[C@@]2(C)C3=CC[C@H]4C(C)(C)[C@H](OC(C)=O)CC[C@]4(C)C3=CC[C@]12C [GANODERIC ACID T]
- MIC [1]: 6.25 µg/mL (≈ 10.2 µM)
- IC50 (Vero): 28 µM

Compound: CC(=O)O[C@@H](C/C=C(\C)C(=O)O)[C@@H](C)[C@H]1CC[C@@]2(C)C3=C(CC[C@]12C)[C@@]1(C)CC[C@@H](OC(C)=O)C(C)(C)[C@@H]1CC3=O
- MIC [1]: > 50 µg/mL
- IC50 (Vero): 33 µM

Compound: CC(=O)O[C@@H](C/C=C(\C)C(=O)O)[C@@H](C)[C@H]1C[C@H](OC(C)=O)[C@@]2(C)C3=C(CC[C@]12C)[C@@]1(C)CC[C@H](O)C(C)(C)[C@@H]1CC3
- MIC [1]: 50 µg/mL (≈ 87.3 µM)
- IC50 (Vero): 30 µM

Compound: CO[C@@H]1C[C@H]2C(C)(C)[C@@H](OC(C)=O)CC[C@]2(C)C2=C1[C@]1(C)[C@@H](OC(C)=O)C[C@H]([C@H](C)[C@H](C/C=C(\C)C(=O)O)OC(C)=O)[C@@]1(C)CC2
- MIC [1]: 12.5 µg/mL (≈ 19.4 µM)
- IC50 (Vero): 26 µM

Compound: CC(=O)O[C@@H](C/C=C(\C)C(=O)O)[C@@H](C)[C@H]1CC[C@@]2(C)C3=C(CC[C@]12C)[C@@]1(C)CCC(=O)C(C)(C)[C@@H]1CC3
- MIC [1]: > 50 µg/mL
- IC50 (Vero): 93 µM

Compound: CC(=O)O[C@H]1CC[C@]2(C)C3=C([C@H](O)C[C@H]2C1(C)C)[C@]1(C)[C@@H](OC(C)=O)C[C@H]([C@H](C)CC/C=C(\C)C(=O)O)[C@@]1(C)CC3
- MIC [1]: 1.56 µg/mL (≈ 2.72 µM)
- IC50 (Vero): 32 µM

Compound: CO[C@@H]1C[C@H]2C(C)(C)[C@@H](OC(C)=O)CC[C@]2(C)C2=C1[C@]1(C)[C@@H](O)C[C@H]([C@H](C)CC/C=C(\C)C(=O)O)[C@@]1(C)CC2
- MIC [1]: 50 µg/mL (≈ 91.8 µM)
- IC50 (Vero): 32 µM

Compound: NNC(=O)c1ccncc1 [ISONIAZID]
- MIC [1]: 0.094 µg/mL (≈ 0.685 µM)

Compound: CC(=O)O[C@H]1CC[C@]2(C)C3=C([C@H](O)C[C@H]2C1(C)C)[C@]1(C)CC[C@H]([C@H](C)CC/C=C(\C)C(=O)O)[C@@]1(C)CC3
- MIC [1]: 25 µg/mL (≈ 48.6 µM)
- IC50 (Vero): 72 µM

Compound: CC(=O)O[C@@H](C/C=C(\C)C(=O)O)[C@@H](C)[C@H]1C[C@H](O)[C@@]2(C)C3=CC[C@H]4C(C)(C)C(=O)CC[C@]4(C)C3=CC[C@]12C
- MIC [1]: > 50 µg/mL
- IC50 (Vero): > 95 µM

Compound: C/C(=C\CC[C@@H](C)[C@H]1C[C@H](O)[C@@]2(C)C3=CC[C@H]4C(C)(C)C(=O)CC[C@]4(C)C3=CC[C@]12C)C(=O)O
- MIC [1]: 50 µg/mL (≈ 107 µM)
- IC50 (Vero): > 107 µM

Compound: CC(=O)O[C@@H]1CC[C@]2(C)C3=CC[C@]4(C)[C@@H]([C@H](C)CC/C=C(\C)C(=O)O)CC[C@@]4(C)C3=CC[C@H]2C1(C)C
- MIC [1]: > 50 µg/mL
- IC50 (Vero): 89 µM

Compound: CC(=O)O[C@@H](C/C=C(\C)C(=O)O)[C@@H](C)[C@H]1C[C@H](OC(C)=O)[C@@]2(C)C3=CC[C@H]4C(C)(C)[C@@H](OC(C)=O)CC[C@]4(C)C3=CC[C@]12C
- MIC [1]: 0.781 µg/mL (≈ 1.27 µM)
- IC50 (Vero): 16 µM

Compound: CC(=O)O[C@@H](C/C=C(\C)C(=O)O)[C@@H](C)[C@H]1CC[C@@]2(C)C3=CC[C@H]4C(C)(C)[C@H](O)CC[C@]4(C)C3=CC[C@]12C
- MIC [1]: 50 µg/mL (≈ 97.5 µM)
- IC50 (Vero): > 98 µM

Compound: CO[C@@H]1C[C@H]2C(C)(C)[C@@H](OC(C)=O)CC[C@]2(C)C2=C1[C@]1(C)CC[C@H]([C@H](C)[C@H](C/C=C(\C)C(=O)O)OC(C)=O)[C@@]1(C)CC2
- MIC [1]: 25 µg/mL (≈ 42.6 µM)
- IC50 (Vero): 28 µM
